These results are taken from patent publication US6716422B1, “Vaccine adjuvants for immunotherapy of melanoma” (ARCH Development Corporation, priority 1998, dated 2004).

The subject of data set [1] is peptide-specific, IFN-γ-producing CD8+ T cells. In words: Human vaccination study: peptide-specific T cell response. Conditions: one line per patient.
Method: Following immunization, assays for peptide specific CTL activity and cytokine production, in particular IFN-γ were conducted.
For each vaccination, 100 cc heparinized blood was obtained and PBMC isolated by Lymphoprep centrifugation. A portion of cells was set aside and separated into CD8+ and CD8-fractions for cryopreservation.
Pulsed PBMC were irradiated (2000 rad), centrifuged, and resuspended in 2 cc DPBS for injection.
Injection of pulsed PBMC was performed subcutaneously, divided between 2 sites, either in upper arms or proximal legs.
rhIL-12, at the assigned dose level (ng/kg), was injected subcutaneously near one of the two vaccine sites.
The entire procedure was repeated every 3 weeks, with clinical reevaluation every 3 cycles.
In vitro expansion of CD8^+ T cells for testing was performed using minimal activation conditions: peptide-pulsed CD8-negative cells as APCs, only 10 U/ml rIL-2 added on day 2 of each stimulation, with one 6-day stimulation followed by a second 4-5 day stimulation.
For data set [2], the system named is melanoma cell lines expressing MAGE-3. The conditions noted are these: activated B cells or dendritic cells, HLA-A2 donor; only if IL-12 included during initial stimulation; cited from earlier work.
For data set [3], the system named is refractory metastatic melanoma. Kind of data set: Human vaccination study: clinical outcome. It counts as in vivo. Conditions: one line per patient. The text has this:
Evaluation of tumor regression is a secondary endpoint in this study. Tumor masses are characterized carefully with bidimensional measurements.
Criteria for a Partial Response (PR): 50% reduction in the sum of the product of the largest perpendicular diameters of the indicator lesions identified prior to therapy.
Criteria for a Complete Response (CR): total disappearance of all evidence of tumor without appearance of new lesions.
Criteria for Progressive Disease (PD): appearance of new lesions; and/or fifty percent increase in the sum of the product of the largest perpendicular diameters of the indicator lesions.
Criteria for Stable Disease (SD): Failure to meet the criteria for a Partial Response, Complete Response, or Progressive Disease.

Data set [4] can be described thus: Relative hydrophilicity/solubility of tumor peptides. The class given is physicochemical. How it is done:
Peptides encoded by several of the unique tumor antigens of the tum^− variants have been defined, such as the P198 peptide used in one of the examples herein. […] Therefore, initial peptide-based immunization studies were performed using the more soluble P198 peptide. Information gained was then examined using P1A peptide as well. Studies with P1A are important in order to measure efficacy of immunization in vivo in terms of protection against living tumor challenge and regression of pre-established tumors. These types of studies would not be possible with P198 because that tumor is rejected spontaneously.

For data set [5] the following is noted: room temperature; cited from earlier work.
In data set [6] the test system is advanced renal cell carcinoma. Conditions: cited from earlier work.
For data set [7] the following is noted: cited from earlier work.
For data set [8] the following is noted: cited from earlier work. The source holds these as a separate data set.

Ends that are not written are not given here.

As for FLWGPRALV [Mage3], the “Evidence Immunized?” value in data set [1] (IL-12 dose 0) was “No”; in data set [1] (IL-12 dose 30 ng/kg) it was “Yes”. Also, the “Induction of specific CTL” value in data set [2] was “specific CTL induced”. The “Clinical Outcome” value in data set [3] (IL-12 dose 0), in data set [3] (IL-12 dose 30 ng/kg) and in data set [3] (IL-12 dose 100 ng/kg) was “PD (appearance of new lesions; and/or fifty percent increase in the sum of the product of the largest perpendicular diameters of the indicator lesions)” throughout.
In the case of KYQAVTTTL [P198 peptide], the “Hydrophilicity relative to P1A peptide” value in data set [4] is given as “more hydrophilic than the P1A peptide”.
As for “rhIL-12: recombinant human interleukin-12, manufactured by the Genetics Institute”, in data set [5], the “Time within which unit doses in a syringe must be used” value was at most 4 h. Further, the “Patients requiring hospitalization for adverse events” value in data set [6] (500 ng/kg/day intravenously 5 times per wk, 16 day rest) is listed as 12 of the 17. Besides, in data set [6] (500 ng/kg/day intravenously), the “Deaths attributed to rhIL-12” value was “Two” and the Patient deaths is recorded as 4. Besides, the Toxicities entry in data set [7] (intravenous, 3-1000 ng/kg/day) was “transient cytopenias (nadirs occurring 2-5 days after treatment), reversible increases of transaminases and bilirubin, transient hyperglycemia, stomatitis, and capillary leak syndrome”. The Maximally tolerated dose in data set [7] (intravenous, single test dose, 2 wk later daily for 5 days, every 3 wk) is given as 500 ng/kg/day. For the same substance, the Tumor responses entry in data set [7] (patients with various malignancies) was “several tumor responses observed”. Further, in data set [8] (in vivo), the Tolerability entry is on record as “well tolerated”. In data set [8] (subcutaneous schedule), the “Renal cell carcinoma patients with a minor response” value is reported as “Two”.
